Experimental findings from ChEMBL document CHEMBL1201862, “PubChem BioAssay data set” (2004) are described below.

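Results reflect a 48-hour exposure of cells in 96-well plates to compound at five concentrations. The concentration for 50% growth inhibition is given as GI50.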 Active and inactive are the calls of the source. Cut-off read from the data, not from the text of the source: active = GI50 up to about 1.1 µM and inactive = higher. Where only a bound is given, the exact number is not on record here.

Among the test systems are T47D; U-251; MDA-MB-435; HOP-62; RPMI-8226; SK-MEL-2; HCT-15; NCI-H226; MOLT-4; Malme-3M; HCC 2998; DMS-114; M14; LOX IMVI; NCI-H522; SNB-75; CAKI-1; UACC-257; HOP-92; EKVX.
What all share (assay): NCI-60 cell line screen, 48 h

As for `CS(=O)(=O)Nc1ccc(Nc2c3ccccc3nc3ccccc23)cc1`, the GI50 in the test on T47D was 2.41 µM (inactive); in the test on U-251, 1.74 µM (inactive); with MDA-MB-435, 7.87 µM (inactive); in the test with HOP-62, 1.08 µM (active); in the test with RPMI-8226 it was 2.04 µM (inactive); in the test with SK-MEL-2, 5.16 µM (inactive). Also, the GI50 in the test with HCT-15 was 2.31 µM; in the test on NCI-H226 it was 1.04 µM (active); in the test on MOLT-4 it was 0.0873 µM (active); in the test on Malme-3M it was 2.15 µM (inactive); in the test with HCC 2998, 4.25 µM (inactive); in the test on DMS-114, 1.46 µM (inactive). Moreover, the GI50 was 3.37 µM (inactive) in the test on M14; 1.26 µM (inactive) in the test on LOX IMVI; 2.06 µM (inactive) with NCI-H522; 3.46 µM (inactive) with SNB-75; 0.491 µM (active) in the test with CAKI-1; 1.36 µM (inactive) in the test with UACC-257. In addition, the GI50 in the test with HOP-92 is 4.78 µM (inactive); in the test on EKVX it was 4.55 µM (inactive).
As to `CC(C)CCC[C@@H](C)C1CCC2[C@@H]3CC=C4C[C@@H](C(=O)NCCN(C)C)CC[C@]4(C)C3CC[C@@]21C` (stereo not given in full), the GI50 in the test on U-251 was 30 µM (inactive); in the test with HOP-62 it was 18.9 µM (inactive); with RPMI-8226, 19.8 µM (inactive); with SK-MEL-2, 11.5 µM (inactive); in the test with HCT-15, 19 µM; with NCI-H226, 19.9 µM (inactive). The GI50 in the test on MOLT-4 is 31.1 µM (inactive); in the test on Malme-3M, 28.9 µM (inactive); with HCC 2998, 23.5 µM (inactive); with DMS-114 it was 14.8 µM (inactive); in the test with M14, 16.3 µM (inactive); in the test with LOX IMVI, 51.4 µM (inactive). Besides, the GI50 in the test with NCI-H522 was 41 µM (inactive); in the test on SNB-75, 20.4 µM (inactive); in the test on CAKI-1, 22.3 µM (inactive); in the test on UACC-257, 22.4 µM (inactive); in the test on HOP-92, 5.89 µM (inactive); in the test on EKVX it was 47.5 µM (inactive).
For `CCCC(OCC)(OCC)OCC`, the GI50 in the test on U-251 is > 100 µM (inactive); in the test on HOP-62 it was > 100 µM (inactive); with RPMI-8226, > 100 µM (inactive); in the test with SK-MEL-2, > 100 µM (inactive); in the test with HCT-15 it was over 100 µM; with NCI-H226 it was > 100 µM (inactive). Moreover, the GI50 in the test on MOLT-4 was > 100 µM (inactive); with Malme-3M, > 100 µM (inactive); in the test with HCC 2998, > 100 µM (inactive); with DMS-114, 69 µM (inactive); in the test with M14 it was > 100 µM (inactive); in the test with LOX IMVI, 48.8 µM (inactive). Moreover, the GI50 in the test with NCI-H522, in the test on SNB-75, in the test with CAKI-1, with UACC-257, in the test on HOP-92 and in the test on EKVX was > 100 µM (inactive) each time.
For `N#C/C(c1nc2ccccc2[nH]1)=c1\s/c(=C/c2ccccc2)c(=O)n1-c1ccccc1`, the GI50 was > 100 µM (inactive) with U-251; > 100 µM (inactive) in the test with HOP-62; > 100 µM (inactive) in the test on RPMI-8226; > 100 µM (inactive) in the test on SK-MEL-2; over 100 µM in the test on HCT-15; > 100 µM (inactive) with NCI-H226. Also, the GI50 in the test on MOLT-4 was 9.89 µM (inactive); with Malme-3M it was > 100 µM (inactive); in the test with HCC 2998, > 100 µM (inactive); with DMS-114 it was > 100 µM (inactive); in the test on M14, > 100 µM (inactive); with LOX IMVI it was > 100 µM (inactive). Also, the GI50 in the test on NCI-H522, in the test with SNB-75, in the test with CAKI-1, in the test with UACC-257, with HOP-92 and with EKVX was > 100 µM (inactive) in each case.
Consider `COC(=O)C(CC(=O)Nc1ccc(C)cc1)C(=O)C(=O)Nc1ccccc1C(C)C` (stereo not given), for which the GI50 in the test with U-251 is > 100 µM (inactive); with HOP-62 it was > 100 µM (inactive); with RPMI-8226, 62.4 µM (inactive); in the test on SK-MEL-2, > 100 µM (inactive); in the test on HCT-15, over 100 µM; in the test on NCI-H226, > 100 µM (inactive). Also, the GI50 in the test with MOLT-4, in the test on Malme-3M, in the test with HCC 2998, with DMS-114, in the test with M14 and with LOX IMVI was > 100 µM (inactive) in each case. In addition, the GI50 in the test on NCI-H522, with SNB-75, in the test on CAKI-1, in the test with UACC-257, in the test on HOP-92 and in the test with EKVX was > 100 µM (inactive) each time.
As to `NC(=S)NNC(=O)/C(=C/c1ccc(/C=C(\NC(=O)c2ccccc2)C(=O)NNC(N)=S)cc1)NC(=O)c1ccccc1`, the GI50 in the test with U-251 is 85.7 µM (inactive); in the test on HOP-62, > 100 µM (inactive); in the test with RPMI-8226 it was 32.1 µM (inactive); in the test on SK-MEL-2, > 100 µM (inactive); in the test on HCT-15 it was over 100 µM; in the test on NCI-H226, > 100 µM (inactive). Also, the GI50 in the test on MOLT-4 was 13.8 µM (inactive); in the test on Malme-3M, > 100 µM (inactive); in the test on HCC 2998, > 100 µM (inactive); in the test on DMS-114, > 71.8 µM (inactive); in the test with M14, > 100 µM (inactive); with LOX IMVI, 34.1 µM (inactive). The GI50 with NCI-H522 is 25.4 µM (inactive); in the test on SNB-75, 30.4 µM (inactive); in the test on CAKI-1 it was > 100 µM (inactive); in the test on UACC-257, > 100 µM (inactive); in the test on HOP-92 it was > 100 µM (inactive); in the test on EKVX it was > 100 µM (inactive).
For `C=CCOc1cc2c(cc1C(C)c1ccc(OC)cc1)OCO2` (stereo not given), the GI50 in the test with U-251 is 0.447 µM (active); in the test with MDA-MB-435, 0.251 µM (active); in the test with HOP-62, 0.495 µM (active); in the test with RPMI-8226 it was 0.78 µM (active); with SK-MEL-2 it was 16.6 µM (inactive); in the test with HCT-15, 0.489 µM. Besides, the GI50 in the test on NCI-H226 is 0.813 µM (active); in the test with MOLT-4, 0.483 µM (active); in the test with Malme-3M it was 0.647 µM (active); in the test on HCC 2998 it was 0.887 µM (active); with DMS-114, 0.289 µM (active); in the test on M14, 0.67 µM (active). The GI50 with LOX IMVI was 0.598 µM (active); in the test with NCI-H522, 0.205 µM (active); with SNB-75, 0.176 µM (active); with CAKI-1, 0.628 µM (active); with UACC-257 it was 0.263 µM (active).
`COc1cc(Br)c(CC2=NCCc3cc(OC)c(OC)cc32)cc1OC`: the GI50 is 11.3 µM (inactive) in the test on U-251; > 100 µM (inactive) in the test on HOP-62; 18.3 µM (inactive) in the test on RPMI-8226; 53.1 µM (inactive) with SK-MEL-2; 31 µM with HCT-15; 11 µM (inactive) in the test with NCI-H226. Moreover, the GI50 with MOLT-4 was 15.8 µM (inactive); in the test with Malme-3M, 25.9 µM (inactive); in the test on HCC 2998 it was 16.4 µM (inactive); with DMS-114 it was 8.89 µM (inactive); in the test with M14, 12.9 µM (inactive); with LOX IMVI it was 9.93 µM (inactive). The GI50 with NCI-H522 was 16.9 µM (inactive); in the test on SNB-75, 36.3 µM (inactive); in the test with CAKI-1, 15.9 µM (inactive); in the test on UACC-257, 16.6 µM (inactive); in the test on HOP-92, 1.64 µM (inactive); in the test with EKVX, 35.7 µM (inactive).
